The target of experiment [1] is T1, Polyphenol oxidase 2 (Agaricus bisporus, UniProt O42713).
T1 sequence (O42713 whole entry): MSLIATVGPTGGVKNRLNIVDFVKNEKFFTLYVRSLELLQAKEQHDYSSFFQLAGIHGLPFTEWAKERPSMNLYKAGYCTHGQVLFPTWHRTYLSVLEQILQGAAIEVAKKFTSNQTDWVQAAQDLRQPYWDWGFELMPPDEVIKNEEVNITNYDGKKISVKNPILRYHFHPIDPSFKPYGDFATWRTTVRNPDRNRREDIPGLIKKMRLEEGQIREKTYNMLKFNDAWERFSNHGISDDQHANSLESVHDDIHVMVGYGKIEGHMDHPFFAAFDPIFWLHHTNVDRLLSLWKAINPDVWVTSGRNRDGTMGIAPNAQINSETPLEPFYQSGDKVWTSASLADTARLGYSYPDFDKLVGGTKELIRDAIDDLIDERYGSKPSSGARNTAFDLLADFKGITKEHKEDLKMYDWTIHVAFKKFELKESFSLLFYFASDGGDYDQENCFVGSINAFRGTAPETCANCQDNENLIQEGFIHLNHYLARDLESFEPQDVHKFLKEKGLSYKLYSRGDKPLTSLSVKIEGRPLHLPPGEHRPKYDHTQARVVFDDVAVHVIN
Briefly: Cresolase Activity Assay. The following applies: pH 6.8; 20 °C. The protocol: (§1) Kinetic assay of catecholase and cresolase activities was carried out through depletion of MeBACat and MePAPh for 1 or 2 min with enzyme concentrations of 11.11 and 112.68 ug/mL at wavelenghts of 473 nm and 352 nm using a Cary spectrophotometer, 100 Biomodel with jacketed cell holders.

Experiment [2] has as its target T1, Polyphenol oxidase 2. The experiment in a line: Catecholase Activity Assay. The following applies: pH 6.8; 20 °C. How it is done:
as §1

For the molecule `CC(C)CCOC(=S)[S][Na]` [Iso-pentyl xanthate, III], the inhibitory constant (Ki) on Polyphenol oxidase 2 [1] turned out to be 6.1 µM; at Polyphenol oxidase 2 [2], 42.2 µM.
`CC(C)OC(=S)[S][Na]` [Iso-propyl xanthate, I]: the Ki at Polyphenol oxidase 2 [1] turned out to be 9.8 µM; at Polyphenol oxidase 2 [2], 12.9 µM.
Turning to `CC(C)COC(=S)[S][Na]` [Iso-butyl xanthate, II], the Ki at Polyphenol oxidase 2 [1] came to 7.2 µM; on Polyphenol oxidase 2 [2], 21.8 µM.

In general, Ki refers to a dissociation constant, usually derived from enzyme kinetics or from competition with a known ligand. The low end stands for higher affinity, the high end for lower affinity.

The values are drawn from BindingDB's records for doi:10.1080/14756360601114536 (University of Tehran, 2007).
